{"source": "patent US20020150553A1", "about": "“Compositions containing C-terminal polypeptides of angiogenic chemokines and methods of use” (The Regents of the University of California, priority 1999, published 2002)", "molecules": {"B1": {"name": "cCAF: Chicken chemotactic and angiogenic factor, product of the 9E3 gene, 9 kDa CXC chemokine (SEQ ID NO:1) (protein)", "chain": "MNGKLGAVLALLLVSAALSQGRTLVKMGNELRCQCISTHSKFIHPKSIQDVKLTPSGPHCKNVEIIATLKDGREVCLDPTAPWVQLIVKALMAKAQLNSDAPL", "modifications": "Gallusgallus"}}, "key": {"[1]": {"tested_on": "blood vessels of the chorioallantoic membrane (CAM)", "assay": "Angiogenesis assays in the CAM (chorioallantoic membrane)", "type": "in vivo, chicken", "details": "for percent of blood vessels oriented towards the pellet minus percent directed away: cCAF peptide 100-300 ng; for angiogenesis / oriented blood vessel growth after preincubation with antibody: peptide (100-300 ng) preincubated with excess of an antibody prepared against it; for new sprouting of blood vessels of the CAM: 4 days after application", "experimental": "(§1) These assays were done as previously described [Martins-Green et al. (1998)]. Briefly, fertilized chicken eggs were incubated for 3 days at 37° C., at which time 2 ml of albumin were withdrawn to drop the embryo and CAM away from the shelf. Windows were made on day 4, the holes covered with transparent tape, and the eggs placed back in the incubator until day 10 when the experiment was performed. Pellets were prepared by mixing the appropriate amount of reduced and non-reduced 9E3 peptides or bFGF with 1% methylcellulose (1:1) and then delivering 5-μl droplets on a bacterial dish and allowing them to dry in a sterile hood for approximately 30 min. This procedure generated small disc-shaped pellets 2 mm in diameter and ˜0.1 mm thick. These pellets containing various concentrations of protein were placed, under sterile conditions, between two large blood vessels of the 10-day-old CAMs. Two or four days later, the pellets and the surrounding area of the CAM were fixed in situ; the CAMs were then removed and examined for the presence of chemotaxis and/or angiogenesis. Angiogenesis was quantified by analysis of blood vessel orientation and/or increase in the number of vessels and sprouts (see below). Negative control pellets were prepared in the same way with 0.5% methylcellulose alone or with the same concentration of BSA as used for the cCAF peptide or with peptide preincubated with an antibody made against it [Martins-Green et al. (1992)].\nAs previously described, 10-day-old CAMs were used because at this stage of development the CAM close to the embryo is fully developed; the blood vessels in this area have stopped growing and assumed a tree-like pattern with short stubby tertiary branches (FIG. 2A). […] [Martins-Green et al. (1997); Vu M T, Smith C F, Burger P C, Klintworth G K (1985) Methods in laboratory investigation. An evaluation of methods to quantitate the chick chorioallantoic membrane assay in angiogenesis. Lab Invest 4:499-508; Klagsbrun M, D'Amore P A (1991) Regulators or angiogenesis. Annu Rev Physiol 53:217-239; Cockerill G W, Gamble J R, Vadas M A (1995) Angiogenesis: models and modulators. Interntl Rev Cytol 1.59:113-160; and Swerlick R A (1995) Angiogenesis. J Dermatol 22:845-852.]\nThe CAMs were then analyzed by making measurements of the orientation of the blood vessels relative to the pellet. For each concentration of the C-terminal peptide and for all controls, 6-10 CAMs were measured. Vessels were classified (FIG. 2A) as primary (largest), secondary (branches of primary vessels) and tertiary (all other vessels). […] The measurements were made without prior knowledge of which specimens were controls and which were cCAF. For secondary vessels; we looked for deviations in their orientations. For tertiary vessels, each vessel was approximated by a vector pointing in its growth direction. Each vector was resolved into components directed radially and tangentially with respect to the pellet; the definition of toward or away was determined from the radial component of the vector. For graphical presentation of the data, the percent of blood vessels growing toward the pellet was determined for secondary and tertiary vessels (FIG. 5).\nQuantification of blood vessel sprouting was performed as described previously [Martins-Green et al. (1998)]. Briefly, a sprout was defined as a very small blood vessel having a length of one third or less that of the tertiary branches of the normal CAM. Sprouts thus defined were counted in the areas of the CAMs with pellets containing 1000 ng of C-terminal peptide. For CAMs treated with 1000 ng/pellet of C-terminal peptide, we counted sprouts on 90 mm total of 21 individual blood vessel segments from 6 different CAMs. For the BSA controls we counted sprouts on 123 mm of 24 segments of blood vessels."}, "leukocytes": {"tested_on": "leukocytes", "assay": "Chemotaxis for leukocytes and tissue changes in cross sections of treated CAMs", "type": "in vivo, chicken", "details": "for chemotaxis for leukocytes: 100 ng", "experimental": "The cells inside the large blood vessel are erythrocytes (these chicken cells are nucleated). […] (C) Natural CAM showing sparse cells and a single blood vessel. Scale bars=100 μm.\nas §1\nAlthough the general structure of treated and untreated CAMs is the same, some differences were seen."}, "[2]": {"assay": "Time-dependent release of the 9E3 peptide from methylcellulose pellets", "type": "physicochemical", "details": "300 ng 125I-labeled peptide in 0.5% methylcellulose pellet, PBS, 37° C.", "experimental": "Samples of 280 μl of saline were removed periodically for scintillation counting and replaced by fresh saline. Error bars represent the standard deviation for 15 samples taken at each time point.\nMethylcellulose pellets containing either form of the peptide at different concentrations were placed on mature CAMs [see Martins-Green M, Feugate J E (1998) The 9E3/CEF4 gene product is a chemotactic and angiogenic factor that can initiate the wound healing cascade in vivo. Cytokine 10:522-535]. Because the peptide is much smaller than cCAF itself, it is possible that release from the pellet might be much more rapid than for the entire molecule. Therefore, before performing the experiments on the CAM we determined the kinetics of release of the C-terminal peptide from pellets under reducing conditions for which the peptide will be a monomer and therefore of smallest size.\nFive microliters of 0.5% methylcellulose (Fisher) containing 300 ng of ^125I-labeled 9E3 peptide were placed in the bottom of 15 Eppendorf tubes (0.5 ml), allowed to dry and then covered with 300 μl of sterile PBS containing 0.02% sodium azide and incubated at 37° C. […] The label released into the fluid was counted in a scintillation counter to determine if and over what period of time the peptide was released."}, "[3]": {"tested_on": "blood vessels of wing muscle tissue", "assay": "Angiogenic assays in 2-week-old chicks (peptide deposited under the skin of the wing)", "type": "in vivo, chick", "details": "1 μg/10 μl under the skin of the wing on two consecutive days, four days after first dose", "source_text": "Hematoxylin and eosin stained cross sections of wing muscle tissue showing organization of the muscle fibers. (A) Very few blood vessels (arrowheads) can be seen amongst the untreated muscle fibers. A large nerve bundle can be seen (black dot) associated with three small blood vessels. (B) Similar section taken from the wing of a bird that has been treated with the C-terminus peptide. Note the presence of numerous small blood vessels (arrowheads) amongst the muscle fibers. (C) Similar section from a bird treated with only buffer vehicle for the peptide. The number of blood vessels (arrowheads) is similar to that of the control. Scale bar=50 μm.\nTo further test the angiogenic potential of the C-terminal peptide, 1 μg of the peptide in 10 μl of water was deposited under the skin of the underside of the wing of 2-week-old chicks on two consecutive days, and the tissues prepared for histology on the fourth day.\nThe C-terminal peptide was deposited under the skin of the under wing of […] chicks using a procedure described previously [Martins-Green M, Boudreau N, Bissell M J (1994) Inflammation is responsible for the development of wound tumors in RSV-infected newly-hatched chicks. Cancer Res 54:4334-4341]. Two samples of 1 μg/10 μl each, were applied on two consecutive days followed by a waiting period of 3 days. […]"}, "[4]": {"details": "supernatant of normal cultures of CEFs; cited from earlier work"}, "[5]": {"details": "higher doses, 600-1000 ng/pellet"}, "[6]": {"details": "CAM cross sections two days after application of pellets"}}}
{"molecule": "C-terminal peptide: last 28 aas of the C-terminus of cCAF (residues 76 to 103 of SEQ ID NO:1), with cysteine No. 4 as N-terminal most aa (CLDPTAPWVQLIVKALMAKAQLNSDAPL; Gallusgallus)", "values": [{"measurement": "number of new sprouts relative to CAMs treated with BSA", "setting": "[1]; 1000 ng/pellet", "result": "about 10 times"}, {"measurement": "blood vessel growth towards the pellet", "setting": "[1]; 100-300 ng per pellet", "result": "stimulated the blood vessels to grow towards the pellet"}, {"measurement": "tortuosity and sprouting effects after preincubation with antibody", "setting": "[1]; 600-1000 ng/pellet, peptide preincubated with excess antibody directed against it", "result": "eliminated"}, {"measurement": "percent of blood vessels oriented towards the pellet minus percent directed away", "setting": "[1]; bFGF 500 ng", "result": "marked blood vessel orientation toward the pellet"}, {"measurement": "reorientation of blood vessels", "setting": "[1]; [5]", "result": "greatly decreased"}, {"measurement": "sprouting of blood vessels", "setting": "[1]; [5]", "result": "abundant sprouting"}, {"measurement": "tortuosity of blood vessels", "setting": "[1]; [5]", "result": "marked tortuosity"}, {"measurement": "most effective doses (significant increase in angiogenic activity: tortuosity and sprouting)", "setting": "[1]; localized administration in CAM assay", "result": "> 450", "unit": "ng"}, {"measurement": "percentage of CAMs showing reorientation and/or growth of blood vessels towards the pellet", "setting": "[1]; non-reduced peptide", "result": 94, "unit": "%"}, {"measurement": "percentage of CAMs showing reorientation and/or growth of blood vessels towards the pellet", "setting": "[1]; non-reduced peptide, listed as cCAF peptide", "result": "~100", "unit": "%"}, {"measurement": "angiogenesis / oriented blood vessel growth after preincubation with antibody", "setting": "[1]", "result": "the effect was eliminated"}, {"measurement": "angiogenesis / oriented blood vessel growth after preincubation with antibody", "setting": "[1]; listed as cCAF peptide", "result": "no angiogenesis was seen"}, {"measurement": "percentage of CAMs showing reorientation and/or growth of blood vessels towards the pellet", "setting": "[1]; peptide under reducing conditions", "result": 96, "unit": "%"}, {"measurement": "percentage of CAMs showing reorientation and/or growth of blood vessels towards the pellet", "setting": "[1]; peptide under reducing conditions, listed as cCAF peptide", "result": "~100", "unit": "%"}, {"measurement": "most effective dose for oriented growth of secondary blood vessels", "setting": "[1]; per pellet, secondary vessels", "result": "~100", "unit": "ng"}, {"measurement": "most effective dose for oriented growth of tertiary blood vessels", "setting": "[1]; per pellet, tertiary vessels", "result": "~300", "unit": "ng"}, {"measurement": "hyperproliferation of the ectoderm of the CAM", "setting": "leukocytes; [6]", "result": "slightly hyperproliferated"}, {"measurement": "chemotaxis for leukocytes", "setting": "leukocytes; [6]", "result": "no chemotaxis for leukocytes"}, {"measurement": "leukocyte chemotaxis or granulation-like tissue formation", "setting": "leukocytes; in vivo, CAM and chick wing", "result": "no evidence was found"}, {"measurement": "duration of slow, prolonged release from the pellet", "setting": "[2]", "result": "up to 48 h"}, {"measurement": "period in which the majority of the peptide was released from the pellet", "setting": "[2]; reducing conditions (monomer)", "result": "≤ 6", "unit": "h"}, {"measurement": "small blood vessels in muscle tissue underlying the site of application versus vehicle and normal wing", "setting": "[3]", "result": "many more small blood vessels"}]}
{"molecule": "IL-8: interleukin 8, ELR-CXC chemokine (SEQ ID NO:3)", "values": [{"measurement": "new sprouting of blood vessels of the CAM", "setting": "[1]; 500 ng per pellet", "result": "extensive new sprouting"}]}
{"molecule": "bFGF: Basic fibroblast growth factor, positive control in the CAM assay [reference compound]", "values": [{"measurement": "percent of blood vessels oriented towards the pellet minus percent directed away", "setting": "[1]; bFGF 500 ng", "result": "marked blood vessel orientation toward the pellet"}, {"measurement": "percentage of CAMs showing reorientation and/or growth of blood vessels towards the pellet", "setting": "[1]; positive control, 500 ng/pellet", "result": 100, "unit": "%"}, {"measurement": "percent of secondary vessels deviated toward the pellet", "setting": "[1]; secondary vessels, bFGF 500 ng", "result": "over 90%"}, {"measurement": "percent of tertiary vessels pointing in the direction of the pellet", "setting": "[1]; tertiary vessels, bFGF 500 ng", "result": "less than 80%"}]}
{"molecule": "B1", "values": [{"measurement": "new sprouting of blood vessels of the CAM", "setting": "[1]; 450 ng per pellet", "result": "extensive new sprouting"}, {"measurement": "chemotaxis for leukocytes", "setting": "leukocytes; [6]", "result": "chemotactic for monocyte/macrophages and lymphocytes"}, {"measurement": "period for which the 9 kDa form is stable", "setting": "[4]", "result": 24, "unit": "h"}]}
